Reference: the CheMixHub viscosity set

Assay: xn = mol fraction of the nth substance listed

CCCCN(CCCC)CCCC + C1CCCCC1
viscosity [mPa·s], 101 kPa
Conditions | 303.15 K | 313.15 K
x1 = 0.0103 | 0.8168 | 0.7154
x1 = 0.0216 | 0.816 | 0.7139
x1 = 0.03178 | 0.8153 | 0.7132
x1 = 0.04023 | 0.8141 | 0.7121
x1 = 0.05159 | 0.8132 | 0.7111
x1 = 0.05978 | 0.8121 | 0.7102
x1 = 0.0709 | 0.8113 | 0.709
x1 = 0.0807 | 0.81 | 0.7078
x1 = 0.08607 | 0.8086 | 0.7065
x2 = 0.1133 | 1.125 | –
x2 = 0.1972 | 1.125 | –
x2 = 0.402 | 1.021 | –
x2 = 0.499 | 0.987 | –
x2 = 0.5952 | 0.951 | –
x2 = 0.7042 | 0.911 | –
x2 = 0.8018 | 0.875 | –
x2 = 0.9005 | 0.845 | –

[2H]O[2H] + CO
298.15 K, 101 kPa
Conditions | viscosity [mPa·s]
x2 = 0.0449 | 1.386
x2 = 0.0748 | 1.535
x2 = 0.1437 | 1.783
x2 = 0.2044 | 1.893
x2 = 0.3143 | 1.872
x2 = 0.4238 | 1.711

Cn1ccnc1 + CO
viscosity [mPa·s]
Conditions | 298.15 K | 308.15 K | 318.15 K
100 kPa, x1 = 0.0511 | 0.6235 | 0.5549 | 0.4923
100 kPa, x1 = 0.1008 | 0.7071 | 0.6136 | 0.5376
100 kPa, x1 = 0.1961 | 0.8597 | 0.7399 | 0.6379
100 kPa, x1 = 0.279 | 0.9763 | 0.8372 | 0.7265
100 kPa, x1 = 0.3965 | 1.159 | 0.9854 | 0.849
100 kPa, x1 = 0.5013 | 1.298 | 1.098 | 0.942
100 kPa, x1 = 0.6101 | 1.429 | 1.203 | 1.029
100 kPa, x1 = 0.6941 | 1.514 | 1.277 | 1.088
100 kPa, x1 = 0.7955 | 1.607 | 1.348 | 1.151
100 kPa, x1 = 0.8414 | 1.645 | 1.377 | 1.174
100 kPa, x1 = 0.9501 | 1.727 | 1.445 | 1.23
101 kPa, x1 = 0.0502 | – | 0.5358 | –
101 kPa, x1 = 0.1011 | – | 0.5959 | –
101 kPa, x1 = 0.2 | – | 0.7153 | –
101 kPa, x1 = 0.3006 | – | 0.8325 | –
101 kPa, x1 = 0.4 | – | 0.9415 | –
101 kPa, x1 = 0.4999 | – | 1.039 | –
101 kPa, x1 = 0.5999 | – | 1.128 | –
101 kPa, x1 = 0.7002 | – | 1.207 | –
101 kPa, x1 = 0.7985 | – | 1.278 | –
101 kPa, x1 = 0.8958 | – | 1.336 | –
101 kPa, x1 = 0.9433 | – | 1.359 | –

CCCCN(CCCC)CCCC + CCCCCCCO
viscosity [mPa·s], 101.3 kPa
Conditions | x1 = 0.1067 | x1 = 0.1877 | x1 = 0.2841 | x1 = 0.4197 | x1 = 0.5183 | x1 = 0.619 | x1 = 0.7191 | x1 = 0.8008 | x1 = 0.89
303.15 K | 4.133 | 3.677 | 3.178 | 2.558 | 2.191 | 1.881 | 1.644 | 1.482 | 1.328
313.15 K | 3.033 | 2.69 | 2.355 | 1.956 | 1.709 | 1.497 | 1.33 | 1.217 | 1.1

CCCCN(CCCC)CCCC + CCCCCO
viscosity [mPa·s], 101.3 kPa
Conditions | x1 = 0.0945 | x1 = 0.1881 | x1 = 0.2845 | x1 = 0.3843 | x1 = 0.4829 | x1 = 0.6148 | x1 = 0.7041 | x1 = 0.798 | x1 = 0.8912
303.15 K | 2.622 | 2.405 | 2.18 | 1.961 | 1.786 | 1.581 | 1.458 | 1.365 | 1.262
313.15 K | 2.122 | 1.91 | 1.714 | 1.551 | 1.415 | 1.266 | 1.188 | 1.118 | 1.054

[2H]O[2H] + [Br-].[K+]
viscosity [mPa·s], 101 kPa
Conditions | x2 = 0.012 | x2 = 0.0375 | x2 = 0.056 | x2 = 0.067 | x2 = 0.073 | x2 = 0.081
298.15 K | 1.086 | 1.046 | 1.024 | 1.018 | 1.03 | 1.047
308.15 K | 0.854 | 0.856 | 0.853 | 0.85 | 0.868 | 0.884
318.15 K | 0.715 | 0.725 | 0.732 | 0.739 | 0.754 | 0.767

O=BOB([O-])OB([O-])OB=O.[Na+].[Na+] + O
viscosity [mPa·s], 101 kPa
Conditions | x1 = 0.0009 | x1 = 0.0018 | x1 = 0.0022 | x1 = 0.0027
298.15 K | 0.9284 | 0.9681 | 0.9845 | 1.008
308.15 K | 0.7526 | 0.7823 | 0.7945 | 0.8122
318.15 K | 0.6216 | 0.6508 | 0.6626 | 0.6806

CN(C)c1ccccc1 + CC(C)=O
viscosity [mPa·s], 101 kPa
Conditions | 303.15 K | 308.15 K
x1 = 0.0782 | 0.409 | 0.374
x1 = 0.1356 | 0.494 | 0.448
x1 = 0.1965 | 0.584 | 0.535
x1 = 0.2551 | 0.668 | 0.614
x1 = 0.3205 | 0.757 | 0.698
x1 = 0.3921 | 0.844 | 0.781
x1 = 0.4724 | 0.925 | 0.857
x1 = 0.5558 | 0.992 | 0.921
x1 = 0.6214 | 1.033 | 0.958
x1 = 0.7086 | 1.072 | 0.995
x1 = 0.7784 | 1.095 | 1.018
x1 = 0.8565 | 1.118 | 1.046
x1 = 0.9221 | 1.138 | 1.069

C=CC#N + Cc1cc(C)cc(C)c1
307.4 K, 101.33 kPa
Conditions | viscosity [mPa·s]
x2 = 0.121 | 0.551
x2 = 0.3367 | 0.495
x2 = 0.5736 | 0.424
x2 = 0.649 | 0.406
x2 = 0.7535 | 0.373
x2 = 0.9118 | 0.332

CN(C)c1ccccc1 + CCCCOCCO
viscosity [mPa·s], 101.3 kPa
Conditions | x2 = 0.0991 | x2 = 0.2007 | x2 = 0.3163 | x2 = 0.3988 | x2 = 0.4955 | x2 = 0.5977 | x2 = 0.6989 | x2 = 0.7971 | x2 = 0.8968
298 K | 1.298 | 1.369 | 1.479 | 1.586 | 1.715 | 1.88 | 2.076 | 2.281 | 2.555
303 K | 1.184 | 1.245 | 1.338 | 1.42 | 1.524 | 1.666 | 1.825 | 2.002 | 2.23
308 K | 1.096 | 1.14 | 1.221 | 1.291 | 1.384 | 1.501 | 1.643 | 1.79 | 1.991
313 K | 1.022 | 1.063 | 1.129 | 1.186 | 1.266 | 1.369 | 1.486 | 1.617 | 1.781
318 K | 0.947 | 0.984 | 1.041 | 1.089 | 1.156 | 1.217 | 1.346 | 1.459 | 1.601

C=CC#N + C1CCCCC1
307.4 K, 101.33 kPa
Conditions | viscosity [mPa·s]
x2 = 0.0861 | 0.66
x2 = 0.2848 | 0.53
x2 = 0.5332 | 0.419
x2 = 0.544 | 0.396
x2 = 0.7114 | 0.359
x2 = 0.8989 | 0.318

OCCN1CCOCC1 + O
101 kPa
Conditions | viscosity [mPa·s]
303.15 K, x1 = 0.8238 | 30.25
313.15 K, x1 = 0.1126 | 13.55

C=CC#N + CCCOC(C)=O
viscosity [mPa·s], 101.33 kPa
Conditions | x1 = 0.1052 | x1 = 0.1835 | x1 = 0.2994 | x1 = 0.4057 | x1 = 0.4982 | x1 = 0.6097 | x1 = 0.7023 | x1 = 0.8019 | x1 = 0.901
298.15 K | 0.54 | 0.524 | 0.5 | 0.479 | 0.459 | 0.435 | 0.411 | 0.387 | 0.362
303.15 K | 0.504 | 0.489 | 0.47 | 0.452 | 0.434 | 0.411 | 0.391 | 0.368 | 0.345
308.15 K | 0.472 | 0.46 | 0.442 | 0.428 | 0.411 | 0.392 | 0.372 | 0.352 | 0.331

Cn1cc[n+](CCC[n+]2ccccc2)c1.[Br-].[Br-] + O
viscosity [mPa·s], 101 kPa
Conditions | 293.15 K | 298.15 K | 303.15 K | 308.15 K | 313.15 K
x1 = 0.0003405 | 1.016 | 0.905 | 0.811 | 0.734 | 0.667
x1 = 0.0004322 | 1.019 | 0.907 | 0.814 | 0.737 | 0.669
x1 = 0.0005421 | 1.021 | 0.909 | 0.816 | 0.739 | 0.672
x1 = 0.000689 | 1.023 | 0.911 | 0.819 | 0.742 | 0.675
x1 = 0.0008251 | 1.032 | 0.918 | 0.827 | 0.744 | 0.678
x1 = 0.0009589 | 1.035 | 0.921 | 0.829 | 0.747 | 0.681
x1 = 0.001109 | 1.038 | 0.924 | 0.832 | 0.749 | 0.684
x1 = 0.00128 | 1.041 | 0.927 | 0.835 | 0.752 | 0.687
x1 = 0.001457 | 1.043 | 0.93 | 0.837 | 0.755 | 0.689
x1 = 0.001664 | 1.047 | 0.933 | 0.839 | 0.758 | 0.691
x1 = 0.001904 | 1.05 | 0.936 | 0.841 | 0.761 | 0.693
x1 = 0.002122 | 1.053 | 0.939 | 0.843 | 0.763 | 0.696
x1 = 0.002357 | 1.057 | 0.942 | 0.846 | 0.766 | 0.699

CC(C)(N)CO + C1CNCCN1
viscosity [mPa·s], 101 kPa
Conditions | x2 = 0.02 | x2 = 0.04 | x2 = 0.06 | x2 = 0.08 | x2 = 0.1 | x2 = 0.12 | x2 = 0.14 | x2 = 0.16 | x2 = 0.18
303.15 K | 95.41 | 91.27 | 86.75 | 83 | 79.54 | 76.81 | 74.64 | 71.81 | 71
313.15 K | 43.72 | 41.54 | 38.97 | 37.34 | 36.06 | 35.06 | 34.1 | 33.76 | 33.69
323.15 K | 24.41 | 23.46 | 22.58 | 21.64 | 20.53 | 19.63 | 18.74 | 17.8 | 17.07

CC1CCC(O)CC1 (configuration not stated) + c1ccccc1
293.15 K, 101 kPa
Conditions | viscosity [mPa·s]
x2 = 0.33 | 5.3
x2 = 0.5 | 2.4
x2 = 0.6 | 1.8
x2 = 0.667 | 1.6
x2 = 0.75 | 1.4
x2 = 0.8 | 1.3
